The values below come from patent US11512054B2, “Pesticidal compounds” (BASF SE, priority 2017, dated 2022).

Holding throughout (assay type): in vivo
Experiment [1] has as its system Orchid Thrips (Dichromothrips corbetti). In words: Action on orchid thrips, floral-immersion technique. The following applies: adult thrips, 72 hours after treatment, read-out: mortality in comparison with untreated controls. How it is done: Dichromothrips corbetti adults used for bioassay were obtained from a colony maintained continuously under laboratory conditions. For testing purposes, the test compound is diluted in a 1:1 mixture of acetone:water (vol:vol), plus Kinetic® HV at a rate of 0.01% v/v.
Thrips potency of each compound was evaluated by using a floral-immersion technique. All petals of individual, intact orchid flowers were dipped into treatment solution and allowed to dry in Petri dishes. Treated petals were placed into individual re-sealable plastic along with about 20 adult thrips. All test arenas were held under continuous light and a temperature of about 28° C. for duration of the assay. After 3 days, the numbers of live thrips were counted on each petal. The percent mortality was recorded 72 hours after treatment.

Experiment [2] concerns Southern Armyworm (Spodoptera eridania), 2nd Instar Larvae. In words: Action on southern armyworm, sprayed lima bean plants. The conditions noted are these: 96 h, 2nd instar larvae on lima bean, 4 days after treatment, read-out: mortality in comparison with untreated controls. As to the method: The active compounds were formulated by a Tecan liquid handler in 100% cyclohexanone as a 10,000 ppm solution supplied in tubes. The 10,000 ppm solution was serially diluted in 100% cyclohexanone to make interim solutions. These served as stock solutions for which final dilutions were made by the Tecan in 50% acetone:50% water (v/v) into 10 or 20 ml glass vials. A nonionic surfactant (Kinetic®) was included in the solution at a volume of 0.01% (v/v). The vials were then inserted into an automated electrostatic sprayer equipped with an atomizing nozzle for application to plants/insects.
Lima bean plants (variety Sieva) were grown 2 plants to a pot and selected for treatment at the 1st true leaf stage. Test solutions were sprayed onto the foliage by an automated electrostatic plant sprayer equipped with an atomizing spray nozzle. The plants were dried in the sprayer fume hood and then removed from the sprayer. Each pot was placed into perforated plastic bags with a zip closure. About 10 to 11 armyworm larvae were placed into the bag and the bags zipped closed. Test plants were maintained in a growth room at about 25° C. and about 20-40% relative humidity for 4 days, avoiding direct exposure to fluorescent light (24 hour photoperiod) to prevent trapping of heat inside the bags. Mortality and reduced feeding were assessed 4 days after treatment, compared to untreated control plants.

Experiment [3] concerns Diamond Back Moth (Plutella xylostella). In words: Action on diamond back moth, cabbage leaf dip. The following applies: foliar, 3rd instar larvae, 72 hours after treatment, read-out: mortality in comparison with untreated controls. As to the method:
The active compound is dissolved at the desired concentration in a mixture of 1:1 (v/v) distilled water:acetone. Surfactant (Kinetic® HV) is added at a rate of 0.01% (v/v). The test solution is prepared at the day of use.
Leaves of cabbage were dipped in test solution and air-dried. Treated leaves were placed in petri dishes lined with moist filter paper and inoculated with ten 3rd instar larvae. Mortality was recorded 72 hours after treatment. Feeding damages were also recorded using a scale of 0-100%.

Experiment [4] concerns Silverleaf Whitefly (Bemisia argentifoli) (Adults). Kind of experiment: Action on silverleaf whitefly adults, sprayed cotton plants. The following applies: Bemisia argentifolii, 72 h, 3 days after treatment, read-out: mortality in comparison with untreated controls. As to the method:
The active compounds were formulated by a Tecan liquid handler in 100% cyclohexanone as a 10,000 ppm solution supplied in tubes. The 10,000 ppm solution was serially diluted in 100% cyclohexanone to make interim solutions. These served as stock solutions for which final dilutions were made by the Tecan in 50% acetone:50% water (v/v) into 5 or 10 ml glass vials. A nonionic surfactant (Kinetic®) was included in the solution at a volume of 0.01% (v/v). The vials were then inserted into an automated electrostatic sprayer equipped with an atomizing nozzle for application to plants/insects.
Cotton plants at the cotyledon stage (one plant per pot) were sprayed by an automated electrostatic plant sprayer equipped with an atomizing spray nozzle. The plants were dried in the sprayer fume hood and then removed from the sprayer. Each pot was placed into a plastic cup and about 10 to 12 whitefly adults (approximately 3-5 days old) were introduced. The insects were collected using an aspirator and a nontoxic Tygon® tubing connected to a barrier pipette tip. The tip, containing the collected insects, was then gently inserted into the soil containing the treated plant, allowing insects to crawl out of the tip to reach the foliage for feeding. Cups were covered with a reusable screened lid. Test plants were maintained in a growth room at about 25° C. and about 20-40% relative humidity for 3 days, avoiding direct exposure to fluorescent light (24 hour photoperiod) to prevent trapping of heat inside the cup. Mortality was assessed 3 days after treatment, compared to untreated control plants.

In experiment [5] the test system is boll weevil (Anthonomus grandis). In words: Action on boll weevil, eggs on insect diet in 96-well microtiter plates. The following applies: 120 h, egg and larval mortality after 5 days, read-out: mortality in comparison with untreated controls. As to the method: For evaluating control of boll weevil (Anthonomus grandis) the test unit consisted of 96-well-microtiter plates containing an insect diet and 5-10 A. grandis eggs.
The compounds were formulated using a solution containing 75% (v/v) water and 25% (v/v) DMSO. Different concentrations of formulated compounds were sprayed onto the insect diet at 5 μl, using a custom built micro atomizer, at two replications.
After application, microtiter plates were incubated at about 25+1° C. and about 75+5% relative humidity for 5 days. Egg and larval mortality was then visually assessed.

Experiment [6] relates to yellow fever mosquito (Aedes aegypti). Kind of experiment: whole plant or invertebrate. The following applies: 48 h, larval mortality visually assessed after 2 days, read-out: mortality in comparison with untreated controls. As to the method:
For evaluating control of yellow fever mosquito (Aedes aegypti) the test unit consisted of 96-well-microtiter plates containing 200 μl of tap water per well and 5-15 freshly hatched A. aegypti larvae.
The active compounds or mixtures were formulated using a solution containing 75% (v/v) water and 25% (v/v) DMSO. Different concentrations of formulated compounds or mixtures were sprayed onto the insect diet at 2.5 μl, using a custom built micro atomizer, at two replications. For experimental mixtures in these tests identical volumes of both mixing partners at the desired concentrations respectively, were mixed together.
After application, microtiter plates were incubated at 28±1° C., 80±5% RH for 2 days. Larval mortality was then visually assessed.

Experiment [7] has as its system tobacco budworm (Heliothis virescens). Kind of experiment: Action on tobacco budworm, eggs on insect diet in 96-well microtiter plates. The following applies: 120 h, egg and larval mortality after 5 days, read-out: mortality in comparison with untreated controls. How it is done: For evaluating control of tobacco budworm (Heliothis virescens) the test unit consisted of 96-well-microtiter plates containing an insect diet and 15-25 H. virescens eggs.
The compounds were formulated using a solution containing 75% v/v water and 25% v/v DMSO. Different concentrations of formulated compounds were sprayed onto the insect diet at 10 μl, using a custom built micro atomizer, at two replications.
After application, microtiter plates were incubated at about 28+1° C. and about 80+5% relative humidity for 5 days. Egg and larval mortality was then visually assessed.

Each structure is given as a SMILES string.

By mortality is commonly meant the percentage killed. For the compound `CC(C)c1ccccc1NC(=S)N/N=C/c1ccc2c(C(=N)Nc3ccc(OC(F)(F)F)cc3)nn(C)c2c1` [Example C-1, 1-(2-isopropylphenyl)-3-[(E)-[1-methyl-3-[N-[4(trifluoromethoxy)phenyl]carbamimidoyl]indazol-6-yl]methyleneamino]thiourea], the mortality at 500 ppm in experiment [1] and in experiment [3] was at least 75% each time. Also, the mortality at 300 ppm in experiment [2] and in experiment [4] was at least 75% in each case. In addition, the mortality at 800 ppm in experiment [5] is at least 75%; in experiment [6], at least 50%; in experiment [7], at least 75%.

Turning to `CC(C)c1ccccc1N1C(=O)CS/C1=N/N=C/c1ccc2c(C(=N)Nc3ccc(OC(F)(F)F)cc3)nn(C)c2c1` [Example C-2, 6-[(E)-[(E)-[3-(2-isopropylphenyl)-4-oxo-thiazolidin-2-ylidene]hydrazono]methyl]-1-methyl-N-[4-(trifluoromethoxy)phenyl]indazole-3-carboxamidine], the mortality at 500 ppm in experiment [1] and in experiment [3] was at least 75% throughout. Also, the mortality at 300 ppm in experiment [2] and in experiment [4] was at least 75% each time. Moreover, the mortality at 800 ppm is at least 75% in experiment [5], at least 50% in experiment [6] and at least 75% in experiment [7].

`CO[C@@H]1[C@@H](OC)[C@H](C)O[C@@H](OC(=O)Nc2ccc3c(C(=S)N(C)c4ccc(OC(F)(F)F)cc4)nn(C)c3c2)[C@@H]1OC` [Example C-4, [(2S,3R,4R,5S,6S)-3,4,5-trimethoxy-6-methyl-tetrahydropyran-2-yl]N-[1-methyl-3-[methyl-[4-(trifluoromethoxy)phenyl]carbamothioyl]indazol-6-yl]carbamate]: the mortality at 500 ppm in experiment [1] and in experiment [3] was at least 75% throughout. In experiment [4], the mortality at 300 ppm is at least 75%. For the same compound, the values for the mortality at 800 ppm in experiment [5], in experiment [6] and in experiment [7] were at least 75%, at least 50% and at least 75%, respectively.

Turning to `CC(C)c1ccccc1/N=C1\SCC(=O)N1/N=C/c1ccc2c(C(N)=Nc3ccc(OC(F)(F)F)cc3)nsc2c1` [Example C-28, 6-[(E)-[(2Z)-2-(2-isopropylphenyl)imino-4-oxo-thiazolidin-3-yl]iminomethyl]-N′-[4-(trifluoromethoxy)phenyl]-1,2-benzothiazole-3-carboxamidine], the mortality at 500 ppm in experiment [1] and in experiment [3] was at least 75% throughout. The mortality at 300 ppm in experiment [2] and in experiment [4] was at least 75% throughout. Further, the mortality at 800 ppm was at least 75% in experiment [5], at least 50% in experiment [6] and at least 75% in experiment [7].

As for `CSC(=N/N=C/c1ccc2c(C(=N)Nc3ccc(OC(F)(F)F)cc3)nn(C)c2c1)Nc1ccccc1C(C)C` [Example C-35, 1-(2-isopropylphenyl)-2-methyl-3-[(E)-[1-methyl-3-[N-[4-(trifluoromethoxy)phenyl]carbamimidoyl]indazol-6-yl]methyleneamino]isothiourea], the mortality at 500 ppm in experiment [1] and in experiment [3] was at least 75% throughout. The mortality at 300 ppm in experiment [2] and in experiment [4] was at least 75% throughout. Further, the mortality at 800 ppm was at least 75% in experiment [5], at least 50% in experiment [6] and at least 75% in experiment [7].

With `CC(C)c1ccccc1NC(=S)N/N=C/c1ccc2c(NC(=N)c3ccc(OC(F)(F)F)cc3)nn(C)c2c1` [Example C-38, 1-(2-isopropylphenyl)-3-[(E)-[1-methyl-3-[[4-(trifluoromethoxy)benzenecarboximidoyl]amino]indazol-6-yl]methyleneamino]thiourea], the mortality at 500 ppm in experiment [1] and in experiment [3] was at least 75% in each case. In addition, the mortality at 300 ppm in experiment [2] and in experiment [4] was at least 75% throughout. The mortality at 800 ppm is at least 75% in experiment [5], at least 50% in experiment [6] and at least 75% in experiment [7].

Turning to `CC(C)c1ccccc1N1C(=O)CS/C1=N\N=C\c1ccc2c(NC(=N)c3ccc(OC(F)(F)F)cc3)nn(C)c2c1` [Example C-39, N-[6-[(E)-[(Z)-[3-(2-isopropylphenyl)-4-oxo-thiazolidin-2-ylidene]hydrazono]methyl]-1-methyl-indazol-3-yl]-4-(trifluoromethoxy)benzamidine], the mortality at 500 ppm in experiment [1] and in experiment [3] was at least 75% throughout. The mortality at 300 ppm in experiment [2] and in experiment [4] was at least 75% in each case. Moreover, the figures for the mortality at 800 ppm in experiment [5], in experiment [6] and in experiment [7] were at least 75%, at least 50% and at least 75%, respectively.
